Results on 28 compounds are retold here after US9914730B2, “Azaquinazoline inhibitors of Atypical protein Kinase C” (Ignyta, Inc., priority 2012, dated 2018).

The target of the assay is T1, full-length human PKCι (Homo sapiens, UniProt P41743).
T1 construct: Recombinant, full-length human PKCι expressed in Sf21 insect cells is also commercially available; purchased; host or cells: Sf21 insect cells
T1 sequence (P41743 1-596): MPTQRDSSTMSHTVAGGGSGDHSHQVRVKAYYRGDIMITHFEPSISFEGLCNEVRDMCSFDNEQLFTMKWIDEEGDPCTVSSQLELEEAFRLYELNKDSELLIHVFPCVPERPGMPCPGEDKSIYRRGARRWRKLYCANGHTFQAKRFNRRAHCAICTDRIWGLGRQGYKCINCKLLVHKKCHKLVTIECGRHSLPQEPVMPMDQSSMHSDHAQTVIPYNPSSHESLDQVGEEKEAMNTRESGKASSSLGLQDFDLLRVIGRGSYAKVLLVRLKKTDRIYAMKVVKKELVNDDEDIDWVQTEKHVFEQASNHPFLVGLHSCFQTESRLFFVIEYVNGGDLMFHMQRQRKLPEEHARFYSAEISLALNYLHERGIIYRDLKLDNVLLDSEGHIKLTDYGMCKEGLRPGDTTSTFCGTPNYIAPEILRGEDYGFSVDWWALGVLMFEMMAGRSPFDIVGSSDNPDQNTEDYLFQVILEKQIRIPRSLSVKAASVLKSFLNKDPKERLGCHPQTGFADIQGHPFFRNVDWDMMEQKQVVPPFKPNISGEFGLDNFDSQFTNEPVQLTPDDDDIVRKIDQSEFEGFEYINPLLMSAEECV
Nature of the assay: PKCι IC50 IMAP assay, full-length PKCι at 150 μM ATP. It is filed as biochemical. The note with it: read-out: IC50 in IMAP assay against full length PKCi at 150 μM ATP. An excerpt: Assays are based on the ability of PKCι to phosphorylate a commercially available peptide substrate in vitro. The peptide substrate is FAM-PKCε pseudopeptide derived peptide, and comprises the amino acid sequence 5FAM-[…]-NH2. Recombinant, full-length human PKCι expressed in Sf21 insect cells is also commercially available. Recombinant, kinase-domain human PKCι is expressed and purified in-house.
The procedure below explains how dose response curves for inhibitors of PKCι are obtained. The screen described is for a 384 well format but the assay can be adapted to 1536 or other formats as required.
Compounds to be tested are dissolved in 100% DMSO. Compounds are diluted as required to give a final concentration of 4% DMSO (v/v) in the assay. 1 μl is plated into 384 well black low-binding flat bottomed assay plates which are used immediately. Dilutions and additions of compound to assay plates are carried out using Matrix WellMate® and Matrix PlateMate® Plus liquid handling systems.
On the day of the screen PKCι/substrate working solution, and ATP working solution, are prepared in buffer containing 20 mM tris-HCl pH7.5, 10 mM MgCl2, 0.01% Triton X100, 250 μM EGTA and 1 mM DTT. The final concentration of PKCι used varies depending on the batch of protein but is typically 15 pM. The final concentration of peptide substrate in the assay is 100 nM. ATP is used at a final concentration of 150 μM or 25 μM in the assays containing full-length or kinase-domain PKCι respectively, which corresponds to five times or equal to the KM^APP for ATP for each enzyme, respectively. The final buffer concentration in the assay is 18 mM tris-HCl pH7.5, 9 mM MgCl2, 0.009% Triton X100, 225 μM EGTA and 0.9 mM DTT. Relevant controls are included, namely no compound and no enzyme. 5 μl PKCι/substrate working solution at 30 pM and 200 nM, respectively, is added to the wells, followed by 4 μl ATP working solution at 375 μM or 62.5 μM for full-length or kinase-domain PKCι respectively, using a 16 channel Matrix pipette. The reaction is allowed to incubate for 60 minutes at room temperature, before the reaction is stopped and developed by the addition of 20 μl IMAP™ development reagent (Molecular Devices). IMAP development reagent consists of 0.25% (v/v) IMAP progressive binding reagent, 17% (v/v) IMAP progressive binding buffer A and 3% (v/v) IMAP progressive binding buffer B. The plates are then incubated for 2 hours at room temperature before being read using an appropriate plate reader, for example a Molecular Devices HT Analyst or a BMG Pherastar. Plates are read using a fluorescence polarisation protocol with excitation at 485 nm and emission at 530 nm, and dichroic mirror at 505 nm.
Percentage inhibition values are calculated from fluorescence polarisation values, using the no compound and no enzyme control values as 0% and 100% inhibition, respectively. IC50 determination is performed with ExcelFit software (IDBS) using curve fit 205. Z′ factors are determined for each plate tested and are all above 0.5.
As to `CC(C)(O)C#Cc1nccc2c(NCC(N)Cc3ccccc3)nc(-c3ccncc3)nc12` (stereo in doubt) [Example 131, 4-(4-{[(2S)-2-amino-3-phenylpropyl]amino}-2-(pyridin-4-yl)pyrido[3,4-d]pyrimidin-8-yl)-2-methylbut-3-yn-2-ol], the IC50 is less than 100 nM.
With `N#Cc1ccnc(Nc2cc(-c3nc(N4CC[C@H](O)[C@H](O)C4)c4c(C5CC5)cncc4n3)ccn2)c1` (stereo in doubt) [Example 487, 2-{4-[5-Cyclopropyl-4-((3R,4S)-3,4-dihydroxy-piperidin-1-yl)-pyrido[3,4-d]pyrimidin-2-yl]-pyridin-2-ylamino}-isonicotinonitrile] the figure was less than 100 nM.
Regarding `N#Cc1ccnc(Nc2cc(-c3nc(N4CC[C@@H](O)[C@@H](O)C4)c4c(C5CC5)cncc4n3)ccn2)c1` (stereo in doubt) [Example 488, 2-{4-[5-Cyclopropyl-4-((3S,4R)-3,4-dihydroxy-piperidin-1-yl)-pyrido[3,4-d]pyrimidin-2-yl]-pyridin-2-ylamino}-isonicotinonitrile], the IC50 was 100 to 1000 nM.
With `FC(F)(F)c1cc2c(-c3nc(NC4CCNC4)c4c(C5CC5)cncc4n3)ccnc2[nH]1` (stereo in doubt) [Example 2069, [5-Cyclopropyl-2-(2-trifluoromethyl-1H-pyrrolo[2,3-b]pyridin-4-yl)-pyrido[3,4-d]pyrimidin-4-yl]-(R)-pyrrolidin-3-yl-amine] the figure was less than 100 nM; with `c1cc(-c2nc(N3CCNCC3)c3ccncc3n2)ccn1` [Example 1, 1-[2-(pyridin-4-yl)pyrido[3,4-d]pyrimidin-4-yl]piperazine], 100 to 1000 nM.
The same measure for `COc1cncc2nc(-c3ccncc3)nc(N[C@@H]3CCNC3)c12` [Example 2, (5-Methoxy-2-pyridin-4-yl-pyrido[3,4-d]pyrimidin-4-yl)-(R)-pyrrolidin-3-yl-amine]: 100 to 1000 nM; for `NCCNc1nc(-c2ccncc2)nc2cnccc12` [Example 3, N-(2-aminoethyl)-2-(pyridin-4-yl)-pyrido[3,4-d]-pyrimidin-4-amine]: 10000 to 40000 nM.
The same measure for `C[C@@H](N)CNc1nc(-c2ccncc2)nc2cnccc12` [Example 4, N-[(2R)-2-aminopropyl)-2-(pyridin-4-yl)pyrido[3,4-d]-pyrimidin-4-amine]: 1000 to 10000 nM; for `C[C@H](N)CNc1nc(-c2ccncc2)nc2cnccc12` [Example 5, N-[(2S)-2-aminopropyl]-2-(pyridin-4-yl)pyrido[3,4-d]-pyrimidin-4-amine]: 10000 to 40000 nM.
In the case of `N[C@H](CNc1nc(-c2ccncc2)nc2cnccc12)Cc1ccccc1` [Example 6, N-[(2S)-2-amino-3-phenylpropyl]-2-(pyridin-4-yl)pyrido[3,4-d]-pyrimidin-4-amine], the IC50 was less than 100 nM.
The same measure for `c1cc(-c2nc(N[C@@H]3CCNC3)c3ccncc3n2)ccn1` [Example 7, (3R)-N-[2-(pyridin-4-yl)pyrido[3,4-d]-pyrimidin-4-yl]-pyrrolidin-3-amine]: less than 100 nM.
Take `Fc1cnccc1-c1nc(N[C@@H]2CCNC2)c2ccncc2n1` [Example 8, (3R)-N-[2-(3-fluoropyridin-4-yl)-pyrido[3,4-d]-pyrimidin-4-yl]-pyrrolidin-3-amine]: the half-inhibitory concentration (IC50) is 100 to 1000 nM.
As to `COc1cncc2nc(-c3ccncc3)nc(NC[C@@H](N)Cc3ccccc3)c12` [Example 9, N-[(2S)-2-amino-3-phenylpropyl]-5-methoxy-2-(pyridin-4-yl)pyrido[3,4-d]-pyrimidin-4-amine], the IC50 was less than 100 nM.
The same measure for `N[C@H](CNc1nc(-c2ccncc2F)nc2cnccc12)Cc1ccccc1` [Example 10, N-[(2S)-2-amino-3-phenylpropyl]-2-(3-fluoropyridin-4-yl)pyrido[3,4-d]-pyrimidin-4-amine]: 100 to 1000 nM; for `N[C@H](CNc1nc(-c2ccncc2)nc2c(Cl)nccc12)Cc1ccccc1` [Example 11, N-[(2S)-2-amino-3-phenylpropyl]-8-chloro-2-(pyridin-4-yl)pyrido[3,4-d]-pyrimidin-4-amine]: less than 100 nM; for `N[C@H](CNc1nc(-c2ccncc2)nc2cnc(Cl)cc12)Cc1ccccc1` [Example 12, N-[(2S)-2-amino-3-phenylpropyl]-6-chloro-2-(pyridin-4-yl)pyrido[3,4-d]-pyrimidin-4-amine]: less than 100 nM.
For `Clc1cc2c(N3CCNCC3)nc(-c3ccncc3)nc2cn1` [Example 13, 1-[6-chloro-2-(pyridin-4-yl)-pyrido[3,4-d]-pyrimidin-4-yl]piperazine], the IC50 was in the range of 1000 to 10000 nM.
As for `O[C@H](CNc1nc(-c2ccncc2)nc2cnccc12)Cc1ccccc1` [Example 15, (2S)-1-phenyl-3-{[2-(pyridin-4-yl)pyrido[3,4-d]-pyrimidin-4-yl]-amino}propan-2-ol], the concentration for half-maximal inhibition (IC50) was in the range of 1000 to 10000 nM.
The same measure for `c1ccc(C[C@H]2CN(c3nc(-c4ccncc4)nc4cnccc34)CCN2)cc1` [Example 16, (3S)-3-benzyl-1-[2-(pyridin-4-yl)pyrido[3,4-d]-pyrimidin-4-yl]-piperazine]: 100 to 1000 nM.
With `c1ccc(C[C@@H]2CN(c3nc(-c4ccncc4)nc4cnccc34)CCN2)cc1` [Example 17, (3R)-3-benzyl-1-[2-(pyridin-4-yl)-pyrido[3,4-d]-pyrimidin-4-yl]-piperazine] the figure was 1000 to 10000 nM; with `CN1CCN(c2nc(-c3ccncc3)nc3cnccc23)CC1` [Example 18, 1-methyl-4-[2-(pyridin-4-yl)-pyrido[3,4-d]-pyrimidin-4-yl]-piperazine], 10000 to 40000 nM; with `CN1CCCN(c2nc(-c3ccncc3)nc3cnccc23)CC1` [Example 19, 1-methyl-4-[2-(pyridin-4-yl)-pyrido[3,4-d]-pyrimidin-4-yl]-1,4-diazepane], 10000 to 40000 nM.
The same measure for `c1ccc(C[C@H]2CN(Cc3ccccc3)CCN2c2nc(-c3ccncc3)nc3cnccc23)cc1` [Example 20, (2S)-2,4-dibenzyl-1-[2-(pyridin-4-yl)-pyrido[3,4-d]-pyrimidin-4-yl]-piperazine]: 10000 to 40000 nM; for `c1cc(-c2nc(N3CCOCC3)c3ccncc3n2)ccn1` [Example 21, 4-[2-(pyridin-4-yl)pyrido[3,4-d]-pyrimidin-4-yl]morpholine]: 10000 to 40000 nM.
On to `CC(C)(C)OC(=O)N1CCN(c2nc(-c3ccncc3)nc3cnccc23)CC1` [Example 22, tert-butyl 4-[2-(pyridin-4-yl)-pyrido[3,4-d]-pyrimidin-4-yl]-piperazine-1-carboxylate], for which the half-inhibitory concentration (IC50) is 10000 to 40000 nM.
With `CC(C)(C)OC(=O)N1CCCN(c2nc(-c3ccncc3)nc3cnccc23)CC1` [Example 23, tert-butyl 4-[2-(pyridin-4-yl)-pyrido[3,4-d]pyrimidin-4-yl]-1,4-diazepane-1-carboxylate] the figure was 10000 to 40000 nM; with `c1cc(-c2nc(N3CCSCC3)c3ccncc3n2)ccn1` [Example 24, 4-[2-(pyridin-4-yl)pyrido[3,4-d]-pyrimidin-4-yl]-thiomorpholine], 10000 to 40000 nM; with `CN(C)[C@H](CNc1nc(-c2ccncc2)nc2cnccc12)Cc1ccccc1` [Example 25, N,N-Dimethyl[(2S)-1-phenyl-3-{[2-(pyridin-4-yl)-pyrido[3,4-d]-pyrimidin-4-yl]-amino}propan-2-yl]amine], 100 to 1000 nM.

Usually IC50 stands for the concentration that gives 50% inhibition.
